In patent US10683278B2 (JINAN UNIVERSITY, priority 2015, dated 2020):

Assays:
[1] = target: T1, AXL kinase (Homo sapiens, UniProt P30530); experiment: IC50 test on AXL kinase (Z′-LYTE FRET kinase activity detection); format: biochemical; settings: for IC50: Z′-LYTE FRET peptide assay, 1 h reaction; for inhibitory activity on AXL kinase: competitive experiment with ATP, in words
T1 construct: purchased Invitrogen PV4803
T1 sequence (P30530 26-894): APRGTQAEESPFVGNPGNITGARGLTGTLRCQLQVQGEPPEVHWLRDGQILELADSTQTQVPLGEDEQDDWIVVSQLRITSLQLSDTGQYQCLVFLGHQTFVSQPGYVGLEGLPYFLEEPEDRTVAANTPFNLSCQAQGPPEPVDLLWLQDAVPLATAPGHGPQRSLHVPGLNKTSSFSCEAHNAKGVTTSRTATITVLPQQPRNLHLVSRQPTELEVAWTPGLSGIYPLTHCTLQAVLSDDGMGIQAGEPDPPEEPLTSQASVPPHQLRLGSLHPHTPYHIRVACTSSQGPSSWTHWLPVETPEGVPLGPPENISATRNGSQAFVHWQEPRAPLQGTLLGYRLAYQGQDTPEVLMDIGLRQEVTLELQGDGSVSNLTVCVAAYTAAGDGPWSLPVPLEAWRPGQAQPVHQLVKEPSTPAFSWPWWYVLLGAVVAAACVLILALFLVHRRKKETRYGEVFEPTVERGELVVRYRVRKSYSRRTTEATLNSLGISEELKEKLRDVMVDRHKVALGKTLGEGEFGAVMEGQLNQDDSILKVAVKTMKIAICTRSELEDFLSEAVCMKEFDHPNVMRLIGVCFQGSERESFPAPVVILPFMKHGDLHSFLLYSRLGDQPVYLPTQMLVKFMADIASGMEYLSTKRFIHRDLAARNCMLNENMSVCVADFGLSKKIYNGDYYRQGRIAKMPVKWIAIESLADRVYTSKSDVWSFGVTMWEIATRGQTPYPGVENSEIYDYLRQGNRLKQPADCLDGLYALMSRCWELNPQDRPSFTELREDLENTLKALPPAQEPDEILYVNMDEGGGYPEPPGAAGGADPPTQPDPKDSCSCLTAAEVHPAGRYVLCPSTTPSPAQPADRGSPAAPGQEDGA
Text: Kinase activity detection: The activity of compounds on kinases was detected by a secondary reaction which used the Z′-LYTE™ technique (a detection using fluorescence, enzyme coupling, and based on differences in susceptibility of phosphorylated and non-phosphorylated polypeptides to proteolytic cleavage), followed the fluorescence resonance energy transfer (FRET) principle, and used Z′-LYTE™ FRET peptide substrates (Invitrogen, Z′-LYTE™ KINASE ASSAY KIT—TYR 2 PEPTIDE, PV3191). AXL kinase (invitrogen, PV4803) was diluted stepwise, FRET peptide was then added, followed by ATP, then by compounds at different concentrations, reacted for 1 h, site-specific proteases were then added to recognize and cleave non-phosphorylated FRET peptides, reacted for 1 h, and […] at 445 nm and 520 nm were detected using excitation wavelength of 400 nm.

[2] = target: T2, FLT-3 kinase domain recombinant protein (Homo sapiens, UniProt P36888); experiment: Inhibition rate on FLT3 kinase (ELISA); format: biochemical; settings: two values per compound; for inhibition at 0.01 µM / inhibition at 0.1 µM / inhibition at 1 µM: read-out: Inhibition rate (%) against receptor tyrosine kinase FLT-3
T2 construct: 50 μL FLT-3 kinase domain recombinant protein diluted with reaction buffer to initiate the reaction
T2 sequence (P36888 610-943 limits assumed): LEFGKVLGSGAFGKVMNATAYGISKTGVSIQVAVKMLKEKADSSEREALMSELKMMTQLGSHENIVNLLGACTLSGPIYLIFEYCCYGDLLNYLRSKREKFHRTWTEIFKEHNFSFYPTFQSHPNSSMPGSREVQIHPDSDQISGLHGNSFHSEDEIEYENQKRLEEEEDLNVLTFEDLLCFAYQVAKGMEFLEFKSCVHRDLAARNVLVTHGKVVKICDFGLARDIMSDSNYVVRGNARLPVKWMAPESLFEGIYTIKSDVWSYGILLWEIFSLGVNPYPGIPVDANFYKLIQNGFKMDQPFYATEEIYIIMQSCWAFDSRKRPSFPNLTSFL
Protocol: Conventional enzyme-linked immunosorbent assay (ELISA) method is used, and the specific steps are as follows
12,000 g of compounds were centrifuged for 5 min, DMSO was added to make a 10^−2M stock solution, vortexed uniformly and sonicated for 10 min for standby application, and stored at −40° C. The compounds were diluted from the stock solution with DMSO to 100 times the concentration to be tested (concentration of DMSO in the system being 1%) during the test.
1. The enzyme reaction substrate Poly (Glu, Tyr) 4:1 was diluted to 20 μg/mL with potassium-free PBS (10 mM sodium phosphate buffer, 150 mM NaCl, pH 7.2-7.4), the ELISA plate was coated with same in 125 μL/well, and reacted at 37° C. for 12-16 hours, the liquid in wells was discarded, the plate was washed three times, for 5 minutes each time, with T-PBS (potassium-free PBS with 0.1% Tween-20, 200 μL/well), and the ELISA plate was dried in an oven at 37° C. for 1-2 hours.
2. To each well were added 49 μL of ATP solution diluted with reaction buffer (50 mM HEPES pH 7.4, 50 mM MgCl2, 0.5 mM MnCl2, 0.2 mM Na3VO4, 1 mM DTT), 1 μL of compounds to be tested, and 50 μL FLT-3 kinase domain recombinant protein diluted with reaction buffer to initiate the reaction (two ATP-free control wells are required for each experiment). Subject to a shaker (100 rpm) at 37° C. and reacted for 1 hour. The liquid in wells was discarded, and the plate was washed three times with T-PBS.
(§1) 3. Antibody PY99 diluent (the antibody was diluted in 1:500 with T-PBS which contains 5 mg/mL BSA) was added in 100 μL/well, subjected same to a shaker at 37° C. and reacted for 0.5 hour. The liquid in wells was discarded, and the plate was washed three times with T-PBS.
as §1, with “4. Horseradish peroxidase labeled goat anti-mouse secondary antibody” for “3. Antibody PY99”, “1:2000” for “1:500”, “mg/ml” for “mg/mL”
5. 2 mg/ml of OPD developing solution (diluted with 0.1 M citric acid-sodium citrate buffer which contains 0.03% H2O2 (pH=5.4)) was added in 100 μL/well, and reacted at 25° C. in the dark for 1-10 minutes.
6. 2 M H2SO4 was added in 50 μL/well to stop the reaction, and the reading from the wavelength-adjustable microwell plate ELIASA VERSAmax was performed with a wavelength of 490 nm.

SMILES | IC50 [1] | Inhibition rate (%) against receptor tyrosine kinase FLT-3 ([2]; compound 10 nM, 0.01 µM) | inhibition at 0.01 µM ([2]; compound 10 nM) | Inhibition rate (%) against receptor tyrosine kinase FLT-3 ([2]; compound 100 nM, 0.1 µM) | inhibition at 0.1 µM ([2]; compound 100 nM) | Inhibition rate (%) against receptor tyrosine kinase FLT-3 ([2]; compound 1000 nM, 1 µM) | inhibition at 1 µM ([2]; compound 1000 nM) | inhibitory activity on AXL kinase [1]
COc1cc2ncnc(Oc3ccc(NC(=O)c4cn5c6c(cc(C)cc6c4=O)CCC5)cc3F)c2cc1OC [TL4830032, N-(4-((6,7-dimethoxyquinazolin-4-yl)oxy)-3-fluorophenyl)-9-methyl-1-oxo-1,5,6,7-tetrahydropyrido[3,2,1-ij]quinoline-2-carboxamide] | 26.5 nM | 62.8% | 63.8% | 56.6% | 69.8% | 68.5% | 72% | –
CCc1ccc2c(c1)c(=O)c(C(=O)Nc1ccc(Oc3ncnc4[nH]cc(-c5ccccc5)c34)c(F)c1)c(CC)n2C [TL4830005, 2,6-diethyl-N-(3-fluoro-4-(5-phenyl-7H-pyrrolo[2,3-d]pyrimidin-4-yloxy)phenyl)-1-methyl-4-oxo-1,4-dihydroquinoline-3-carboxamide] | 23 nM | 49.8% | 55.7% | 53.3% | 50.1% | 59.9% | 71.4% | strong inhibitory activity
Cc1c(C(=O)Nc2ccc(Oc3ncnc4[nH]cc(-c5ccccc5)c34)c(F)c2)c(=O)c2cc(C(F)(F)F)ccc2n1C [TL50121, N-(3-fluoro-4-((5-phenyl-7H-pyrrolo[2,3-d]pyrimidin-4-yl)oxy)phenyl)-1,2-dimethyl-4-oxo-6-(trifluoromethyl)-1,4-dihydroquinoline-3-carboxamide] | 153 nM | 61.6% | 58.2% | 63.3% | 66.7% | 77.6% | 84.4% | –
Cc1c(C(=O)Nc2ccc(Oc3ncnc4[nH]cc(-c5ccccc5)c34)c(F)c2)c(=O)c2cc(OC(F)(F)F)ccc2n1C [TL4800117, N-(3-fluoro-4-((5-phenyl-7H-pyrrolo[2,3-d]pyrimidin-4-yl)oxy)phenyl)-1,2-dimethyl-4-oxo-6-(trifluoromethoxy)-1,4-dihydroquinoline-3-carboxamide] | 75 nM | 61.5% | 59.5% | 70.2% | 76.3% | 74.1% | 83.8% | –
Cc1ccc2c(c1)c(=O)c(C(=O)Nc1ccc(Oc3ncnc4[nH]cc(-c5ccccc5)c34)c(F)c1)c(C)n2C [TL50115, N-(3-fluoro-4-(5-phenyl-7H-pyrrolo[2,3-d]pyrimidin-4-yloxy)phenyl)-1,2,6-trimethyl-4-oxo-1,4-dihydroquinoline-3-carboxamide] | 102 nM | – | – | – | – | – | – | –
Cc1c(C(=O)Nc2ccc(Oc3ncnc4[nH]cc(-c5ccccc5)c34)c(F)c2)c(=O)c2cc(C3CC3)ccc2n1C [TL50148, 6-cyclopropyl-N-(3-fluoro-4-((5-phenyl-7H-pyrrolo[2,3-d]pyrimidin-4-yl)oxy)phenyl)-1,2-dimethyl-4-oxo-1,4-dihydroquinoline-3-carboxamide] | 227 nM | – | – | – | – | – | – | –

Second part, the molecule after the results:

IC50 [1] | Inhibition rate (%) against receptor tyrosine kinase FLT-3 ([2]; compound 10 nM, 0.01 µM) | inhibition at 0.01 µM ([2]; compound 10 nM) | Inhibition rate (%) against receptor tyrosine kinase FLT-3 ([2]; compound 100 nM, 0.1 µM) | inhibition at 0.1 µM ([2]; compound 100 nM) | Inhibition rate (%) against receptor tyrosine kinase FLT-3 ([2]; compound 1000 nM, 1 µM) | inhibition at 1 µM ([2]; compound 1000 nM) | inhibitory activity on AXL kinase [1] | SMILES
20 nM | 49.2% | 48.5% | 51.8% | 50.3% | 81.2% | 83.5% | – | COc1cc2ncnc(Oc3ccc(NC(=O)c4cn(C5CC5)c5cc(N6CCNCC6)c(F)cc5c4=O)cc3F)c2cc1OC [GDL5000110, 1-cyclopropyl-N-(4-(6,7-dimethoxyquinazolin-4-yloxy)-3-fluorophenyl)-6-fluoro-4-oxo-7-(piperazin-1-yl)-1,4-dihydroquinoline-3-carboxamide]
16 nM | 59.8% | 65.3% | 66.5% | 74.3% | 91.6% | 100% | strong inhibitory activity | CCc1ccc2c(c1)c(=O)c(C(=O)Nc1ccc(Oc3ncnc4[nH]cc(-c5ccc(OC)cc5)c34)c(F)c1)c(C)n2C [GDL5000037, 6-ethyl-N-(3-fluoro-4-(5-(4-methoxyphenyl)-7H-pyrrolo[2,3-d]pyrimidin-4-yloxy)phenyl)-1,2-dimethyl-4-oxo-1,4-dihydroquinoline-3-carboxamide]
34 nM | 55.0% | 58.3% | 73.0% | 80.7% | 95.9% | 98.2% | – | CCc1ccc2c(c1)c(=O)c(C(=O)Nc1ccc(Oc3ncnc4[nH]cc(-c5cnn(C)c5)c34)c(F)c1)c(C)n2C [GDL5000038, 6-ethyl-N-(3-fluoro-4-(5-(1-methyl-1H-pyrazol-4-yl)-7H-pyrrolo[2,3-d]pyrimidin-4-yloxy)phenyl)-1,2-dimethyl-4-oxo-1,4-dihydroquinoline-3-carboxamide]
72 nM | 52.7% | 55.9% | 63.8% | 67.8% | 82.3% | 88.7% | – | CCc1ccc2c(c1)c(=O)c(C(=O)Nc1ccc(Oc3ccnc(N)c3Cl)c(F)c1)c(C)n2C [GDL5000059, N-(4-((2-amino-3-chloropyridin-4-yl)oxy)-3-fluorophenyl)-6-ethyl-1,2-dimethyl-4-oxo-1,4-dihydroquinoline-3-carboxamide]
